Test system: human adult PBMCs
Experiment: Cytokine production by stimulated human adult PBMCs (ELISA / multiplex)
Format: cell-based
Protocol: ELISAs and Multiplex-Analyte Assays. Supernatants derived from human PBMCs stimulations were assayed by ELISA for TNF and IL-6 (ThermoFisher Scientific; Waltham, MA, USA). Cytokine and chemokine expression profiles (e.g., IFNγ, IL-9, IL-10, IL-12 (p70), IL-13, IL-1β, IL-23, IL-27, IL-28A, IL-33, IL-6, MIP-3α/CCL20, and TNF) in cell culture supernatants were measured using a customized Milliplex® Human Th17 Magnetic Bead Panel according to the manufacturer's instructions (Millipore, Chicago, IL, USA). Assays were read and analyzed on the Luminex® 100/200TM System and xPOTENT® software (Luminex, Austin, TX). A minimum threshold was set at the minimum detectable concentration for each individual assay, defined as three standard deviations above the mean background.
PBMCs were isolated from blood using a Ficoll density gradient. PBMCs either used fresh or were stored at 5×10^7 cells per vial in 1 mL RPMI containing 20% autologous plasma and 10% DMSO at −80° C. until use. […] PBMCs isolated from human adult donors or THP1-NF-κB cells were resuspended at a concentration of 10^5 cells/200 μl of RPMI supplemented with 10% of platelet-poor plasma or THP1 culture medium, respectively. […] After 24 hours of incubation (37° C., 5% CO2), plates were spun down (500×g, room temperature, 5 minutes) and supernatants were harvested for further analysis.

[1] = human adult PBMCs, 24 hours, compounds at 100 µM (FIG. 7), ELISA, median

## CNC(=O)c1c(NC(=O)c2ccc(S(=O)(=O)N(C)C)cc2)sc2c1CCC2 [Compound 80]
384 and 96 well assay
  Activation of human adult PBMCs: induced activation
24 hours, 100 μM, ELISA
  Cytokine production (TNF and IL-6) from human adult PBMCs: induces cytokine production
[1]
  Adult PBMCs (median ng/ml) IL-6 (N = 7): 1.868 ng/mL
  Adult PBMCs (median ng/ml) TNFa (N = 13): 0.1958 ng/mL
